Assay results: patent publication US20180042223A1, “COMPOSITION COMPRISING A HYDROGEL AND PESTICIDES” (priority 2014, published 2018)

Test system: spider mite (Tetranychus uricae)
Test: Effectiveness of pesticide with NovioHelix hydrogel adjuvant: dead percentage of spider mites on paprika plants
Assay type: in vivo
Conditions: day 5 after treatment; infected paprika plants; applied till run off; Noviohelix 3 mg/mL where used
Experimental: Paprika plants infected with spider mite (Tetranychus uricae) were used as experiment samples. All paprika (±20cm) were artificially infected with spiders 5 days before the experiments. The insecticide Spiromesifen (Spiromesifen, 240 g/l, Oberon) was used to against spiders. Noviohelix (3 mg/mL) was used as an adjuvant. All samples were applied with pesticide until ‘till run off’ (the first droplet of a composition fall off the leave). The effectiveness of Spiromesifen either with or without NovioHelix was determined based on the dead percentage of spiders after treatment. The spiders both in mature and immature phases were counted before and at day 5 after experiment.

SMILES: Cc1cc(C)c(C2=C(OC(=O)CC(C)(C)C)C3(CCCC3)OC2=O)c(C)c1 [Spiromesifen]
- % dead (dead percentage of spider): 84.8%
